Reference: ChEMBL document CHEMBL1136936, “Discovery of N-{N-[(3-cyanophenyl)sulfonyl]-4(R)-cyclobutylamino-(L)-prolyl}-4-[(3',5'-dichloroisonicotinoyl) amino]-(L)-phenylalanine (MK-0668), an extremely potent and orally active antagonist of very late antigen-4” (J Med Chem, 2009)

Columns and labels:
Integrin alpha-4 [1] = molecular target: T1, Integrin alpha-4 (Homo sapiens, UniProt P13612); test: Displacement of [125I]-(S)-2-((2S,4R)-4-(azetidin-1-yl)-1-(3-iodophenylsulfonyl)pyrrolidine-2-carboxamido)-3-(4-(3,5-dichloroisonicotinamido)phenyl)propanoic acid from VLA4 in human whole blood by competitive binding assay; assay type: tissue-based
T1 sequence (P13612 whole entry): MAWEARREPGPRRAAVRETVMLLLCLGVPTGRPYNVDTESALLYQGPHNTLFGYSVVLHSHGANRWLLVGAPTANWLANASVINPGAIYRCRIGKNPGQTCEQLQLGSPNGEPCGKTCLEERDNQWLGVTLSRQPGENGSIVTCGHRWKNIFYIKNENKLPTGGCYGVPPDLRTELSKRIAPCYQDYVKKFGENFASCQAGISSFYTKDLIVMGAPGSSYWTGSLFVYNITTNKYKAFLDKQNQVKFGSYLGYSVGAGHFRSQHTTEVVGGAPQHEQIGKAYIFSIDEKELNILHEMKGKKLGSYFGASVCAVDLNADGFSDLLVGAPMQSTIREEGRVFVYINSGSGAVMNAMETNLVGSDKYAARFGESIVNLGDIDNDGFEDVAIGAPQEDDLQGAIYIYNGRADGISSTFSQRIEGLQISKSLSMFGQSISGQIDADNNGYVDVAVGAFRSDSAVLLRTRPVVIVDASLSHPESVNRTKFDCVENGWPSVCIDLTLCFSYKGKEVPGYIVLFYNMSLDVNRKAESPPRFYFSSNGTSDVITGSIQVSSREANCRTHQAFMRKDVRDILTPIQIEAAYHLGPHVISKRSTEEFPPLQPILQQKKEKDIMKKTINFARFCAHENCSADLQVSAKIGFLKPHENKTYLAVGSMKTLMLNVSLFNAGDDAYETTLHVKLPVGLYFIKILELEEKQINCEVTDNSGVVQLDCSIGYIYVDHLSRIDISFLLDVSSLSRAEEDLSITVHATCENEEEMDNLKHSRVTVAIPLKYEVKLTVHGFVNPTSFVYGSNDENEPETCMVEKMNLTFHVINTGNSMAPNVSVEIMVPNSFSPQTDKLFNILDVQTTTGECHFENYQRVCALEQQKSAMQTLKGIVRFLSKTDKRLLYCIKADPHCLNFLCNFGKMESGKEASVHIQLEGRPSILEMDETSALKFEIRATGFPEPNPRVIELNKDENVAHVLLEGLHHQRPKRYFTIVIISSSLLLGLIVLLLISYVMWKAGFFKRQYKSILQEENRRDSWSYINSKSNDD

[2] = molecular target: Integrin alpha-4 (Homo sapiens) (UniProt P13612); test: Binding affinity to human VLA4 at 37 degC after 1 hr
Integrin alpha-4 [3] = molecular target: T1, Integrin alpha-4; test: Displacement of [125I]-(S)-2-((2S,4R)-4-(azetidin-1-yl)-1-(3-iodophenylsulfonyl)pyrrolidine-2-carboxamido)-3-(4-(3,5-dichloroisonicotinamido)phenyl)propanoic acid from VLA4 in human Jurkat cells washed with Hepes buffer by competitive binding assay; assay type: cell-based
[4] = molecular target: Integrin alpha-4 (Homo sapiens) (UniProt P13612); test: Binding affinity to human VLA4 at 37 degC after 3 hrs; design: concentration or dose not given beside the values
Rattus norvegicus [5] = test: Ex vivo receptor occupancy at VLA4 in rat at 1 mg/kg, po after 8 hrs by [125I]- -(S)-2-((2S,4R)-4-(azetidin-1-yl)-1-(3-iodophenylsulfonyl)pyrrolidine-2-carboxamido)-3-(4-(3,5-dichloroisonicotinamido)phenyl)propanoic acid competitive binding assay; assay type: functional
Canis familiaris [6] = test: Tmin in dog at 5 mg/kg, po; assay type: ADME, organism-based, Canis lupus familiaris; design: dose 5 mg/kg, route oral; details: in vivo
Canis familiaris [7] = test: Ex vivo receptor occupancy at VLA4 in dog at 5 mg/kg, po after 12 hrs by [125I]- -(S)-2-((2S,4R)-4-(azetidin-1-yl)-1-(3-iodophenylsulfonyl)pyrrolidine-2-carboxamido)-3-(4-(3,5-dichloroisonicotinamido)phenyl)propanoic acid competitive binding assay; assay type: functional, Canis lupus familiaris
Rhesus monkey [8] = test: Tmin in rhesus monkey at 5 mg/kg, po; assay type: ADME, organism-based, Macaca mulatta; design: dose 5 mg/kg, route oral; details: in vivo
Cytochrome P450 3A4 = Cytochrome P450 3A4 (Homo sapiens, UniProt P08684); test: Inhibition of human CYP3A4; assay type: ADME
Rhesus monkey [9] = test: Ex vivo receptor occupancy at VLA4 in rhesus monkey at 5 mg/kg, po after 8 hrs by [125I]- -(S)-2-((2S,4R)-4-(azetidin-1-yl)-1-(3-iodophenylsulfonyl)pyrrolidine-2-carboxamido)-3-(4-(3,5-dichloroisonicotinamido)phenyl)propanoic acid competitive binding assay; assay type: functional, Macaca mulatta
Rattus norvegicus [10] = test: Tmin in rat at 5 mg/kg, po; assay type: ADME, organism-based; design: dose 5 mg/kg, route oral; details: in vivo
Rattus norvegicus [11] = test: Ex vivo receptor occupancy at VLA4 in rat at 5 mg/kg, po after 12 hrs by [125I]- -(S)-2-((2S,4R)-4-(azetidin-1-yl)-1-(3-iodophenylsulfonyl)pyrrolidine-2-carboxamido)-3-(4-(3,5-dichloroisonicotinamido)phenyl)propanoic acid competitive binding assay; assay type: functional
[12] = molecular target: Integrin alpha-4 (Homo sapiens) (UniProt P13612); test: Inhibition of human VLA4
Liver microsomes [13] = test: Metabolic stability in rat liver microsomes after 1 hr; assay type: ADME, Microsome
[14] = Half life in rat at 5 mg/kg, po; assay type: ADME, organism-based; design: dose 5 mg/kg, route oral; details: in vivo
Rattus norvegicus [15] = organism: Rattus norvegicus; test: Inhibition of rat VLA4
[16] = Half life in rhesus monkey at 5 mg/kg, po; assay type: ADME, organism-based, Macaca mulatta; design: dose 5 mg/kg, route oral; details: in vivo
[17] = Half life in dog at 5 mg/kg, po; assay type: ADME, organism-based, Canis lupus familiaris; design: dose 5 mg/kg, route oral; details: in vivo
[18] = Plasma Clearance in rhesus monkey at 5 mg/kg, po; assay type: ADME, organism-based, Macaca mulatta; design: dose 5 mg/kg, route oral
[19] = Plasma Clearance in dog at 5 mg/kg, po; assay type: ADME, organism-based, Canis lupus familiaris; design: dose 5 mg/kg, route oral
Canis lupus familiaris = organism: Canis lupus familiaris; test: Inhibition of dog VLA4
[20] = Plasma Clearance in rat at 5 mg/kg, po; assay type: ADME, organism-based; design: dose 5 mg/kg, route oral
Macaca mulatta = organism: Macaca mulatta; test: Inhibition of rhesus monkey VLA4
Liver microsomes [21] = test: Metabolic stability in human liver microsomes after 1 hr; assay type: ADME, Microsome
[22] = Half life in dog at 0.75 mg/kg, iv; assay type: ADME, organism-based, Canis lupus familiaris; design: dose 0.75 mg/kg, route intravenous; details: in vivo
[23] = Plasma Clearance in rhesus monkey at 0.75 mg/kg, iv; assay type: ADME, organism-based, Macaca mulatta; design: dose 0.75 mg/kg, route intravenous
Rhesus monkey [24] = test: Tmin in rhesus monkey at 0.75 mg/kg, iv; assay type: ADME, organism-based, Macaca mulatta; design: dose 0.75 mg/kg, route intravenous; details: in vivo
Canis familiaris [25] = test: Ex vivo receptor occupancy at VLA4 in dog at 0.75 mg/kg, iv after 8 hrs by [125I]- -(S)-2-((2S,4R)-4-(azetidin-1-yl)-1-(3-iodophenylsulfonyl)pyrrolidine-2-carboxamido)-3-(4-(3,5-dichloroisonicotinamido)phenyl)propanoic acid competitive binding assay; assay type: functional, Canis lupus familiaris
Rhesus monkey [26] = test: Ex vivo receptor occupancy at VLA4 in rhesus monkey at 0.75 mg/kg, iv after 8 hrs by [125I]- -(S)-2-((2S,4R)-4-(azetidin-1-yl)-1-(3-iodophenylsulfonyl)pyrrolidine-2-carboxamido)-3-(4-(3,5-dichloroisonicotinamido)phenyl)propanoic acid competitive binding assay; assay type: functional, Macaca mulatta
[27] = Plasma Clearance in rat at 0.5 mg/kg, iv; assay type: ADME, organism-based; design: dose 0.5 mg/kg, route intravenous
Rattus norvegicus [28] = test: Ex vivo receptor occupancy at VLA4 in rat at 0.5 mg/kg, iv after 8 hrs by [125I]- -(S)-2-((2S,4R)-4-(azetidin-1-yl)-1-(3-iodophenylsulfonyl)pyrrolidine-2-carboxamido)-3-(4-(3,5-dichloroisonicotinamido)phenyl)propanoic acid competitive binding assay; assay type: functional
Canis familiaris [29] = test: Tmin in dog at 0.75 mg/kg, iv; assay type: ADME, organism-based, Canis lupus familiaris; design: dose 0.75 mg/kg, route intravenous; details: in vivo
[30] = Half life in rat at 0.5 mg/kg, iv; assay type: ADME, organism-based; design: dose 0.5 mg/kg, route intravenous; details: in vivo
[31] = Plasma Clearance in dog at 0.75 mg/kg, iv; assay type: ADME, organism-based, Canis lupus familiaris; design: dose 0.75 mg/kg, route intravenous
[32] = Half life in rhesus monkey at 0.75 mg/kg, iv; assay type: ADME, organism-based, Macaca mulatta; design: dose 0.75 mg/kg, route intravenous; details: in vivo
Rattus norvegicus [33] = test: Tmin in rat at 0.5 mg/kg, iv; assay type: ADME, organism-based; design: dose 0.5 mg/kg, route intravenous; details: in vivo

Sequence of Cytochrome P450 3A4 (P08684 whole entry): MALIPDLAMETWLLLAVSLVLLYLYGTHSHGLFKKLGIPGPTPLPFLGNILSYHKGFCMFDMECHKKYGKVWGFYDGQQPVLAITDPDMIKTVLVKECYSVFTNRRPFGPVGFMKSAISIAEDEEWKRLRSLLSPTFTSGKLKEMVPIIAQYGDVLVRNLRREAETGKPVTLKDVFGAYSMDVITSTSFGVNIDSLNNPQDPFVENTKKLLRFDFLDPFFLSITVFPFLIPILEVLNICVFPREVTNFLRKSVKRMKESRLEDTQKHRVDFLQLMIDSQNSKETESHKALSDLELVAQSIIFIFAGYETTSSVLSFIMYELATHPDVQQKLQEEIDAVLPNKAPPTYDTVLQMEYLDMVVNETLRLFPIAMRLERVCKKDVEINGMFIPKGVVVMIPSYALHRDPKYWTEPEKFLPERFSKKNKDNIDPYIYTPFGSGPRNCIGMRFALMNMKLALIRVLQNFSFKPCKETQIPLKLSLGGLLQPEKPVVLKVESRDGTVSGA

N[C@@H]1C[C@@H](C(=O)N[C@@H](Cc2ccc(NC(=O)c3c(Cl)cncc3Cl)cc2)C(=O)O)N(S(=O)(=O)c2cc(Cl)cc(Cl)c2)C1
IC50 (Integrin alpha-4 [1]): 0.4 nM
Activity [2]: 47%
IC50 (Integrin alpha-4 [3]): 0.09 nM

O=C(Nc1ccc(C[C@H](NC(=O)[C@@H]2C[C@H](N3CCC3)CN2S(=O)(=O)c2cc(Cl)cc(Cl)c2)C(=O)O)cc1)c1c(Cl)cncc1Cl
Activity [2]: 15%
IC50 (Integrin alpha-4 [3]): 0.2 nM

O=C(Nc1ccc(C[C@H](NC(=O)[C@@H]2C[C@@H](NC3CCC3)CN2S(=O)(=O)c2cc(Cl)cc(Cl)c2)C(=O)O)cc1)c1c(Cl)cncc1Cl
IC50 (Integrin alpha-4 [1]): 0.1 nM
Activity [4]: 82%
IC50 (Integrin alpha-4 [3]): 0.1 nM

CCOC(=O)[C@H](Cc1ccc(NC(=O)c2c(Cl)cncc2Cl)cc1)NC(=O)[C@@H]1C[C@@H](N2CCC2)CN1S(=O)(=O)c1cc(Cl)cc(Cl)c1
Activity (Rattus norvegicus [5]): 62%

CCOC(=O)[C@H](Cc1ccc(NC(=O)c2c(Cl)cncc2Cl)cc1)NC(=O)[C@@H]1C[C@@H](NC2CCC2)CN1S(=O)(=O)c1cccc(C#N)c1
Tmin (Canis familiaris [6]): 12 h
Activity (Canis familiaris [7]): 97%
Tmin (Rhesus monkey [8]): 0 h
IC50 (Cytochrome P450 3A4): 1700 nM
Activity (Rhesus monkey [9]): 95%
Tmin (Rattus norvegicus [10]): 0 h
Activity (Rattus norvegicus [11]): 77%

N#Cc1cccc(S(=O)(=O)N2C[C@H](NC3CCC3)C[C@H]2C(=O)N[C@@H](Cc2ccc(NC(=O)c3c(Cl)cncc3Cl)cc2)C(=O)O)c1
IC90 [12]: 0.13 nM
Stability (Liver microsomes [13]): 39 pmol/mg
Tmin (Canis familiaris [6]): 6 h
Activity (Canis familiaris [7]): 83%
Tmin (Rhesus monkey [8]): 0 h
half-life [14]: 1 h
IC90 (Rattus norvegicus [15]): 0.4 nM
half-life [16]: 1.1 h
half-life [17]: 0.5 h
CL/F [18]: 33 mL/min/kg
Activity (Rhesus monkey [9]): 88%
CL/F [19]: 29 mL/min/kg
Activity [4]: 64%
Tmin (Rattus norvegicus [10]): 0 h
IC90 (Canis lupus familiaris): 0.19 nM
CL/F [20]: 65 mL/min/kg
IC90 (Macaca mulatta): 0.21 nM
Activity (Rattus norvegicus [11]): 67%
Stability (Liver microsomes [21]): 56 pmol/mg

CCOC(=O)[C@H](Cc1ccc(NC(=O)c2c(Cl)cncc2Cl)cc1)NC(=O)[C@@H]1C[C@@H](NC2CCC2)CN1S(=O)(=O)c1cc(Cl)cc(Cl)c1
IC50 (Cytochrome P450 3A4): < 400 nM
Activity (Rattus norvegicus [5]): 51%

C[C@@]1(C(=O)N[C@@H](Cc2ccc(NC(=O)c3c(Cl)cncc3Cl)cc2)C(=O)O)CCCN1S(=O)(=O)c1cc(Cl)cc(Cl)c1
IC50 (Integrin alpha-4 [1]): 49 nM
IC50 (Integrin alpha-4 [3]): 0.11 nM

O=C(Nc1ccc(C[C@H](NC(=O)[C@@H]2CCCN2S(=O)(=O)c2cc(Cl)cc(Cl)c2)C(=O)O)cc1)c1c(Cl)cncc1Cl
IC50 (Integrin alpha-4 [1]): 1.5 nM
Activity [2]: 62%
IC50 (Integrin alpha-4 [3]): 0.07 nM

O=C(Nc1ccc(C[C@H](NC(=O)[C@@H]2C[C@@H](N3CCC3)CN2S(=O)(=O)c2cc(Cl)cc(Cl)c2)C(=O)O)cc1)c1c(Cl)cncc1Cl
IC50 (Integrin alpha-4 [1]): 0.2 nM
half-life [22]: 0.5 h
clearance [23]: 33 mL/min/kg
Tmin (Rhesus monkey [24]): 6 h
Activity (Canis familiaris [25]): 72%
Activity (Rhesus monkey [26]): 87%
Activity [4]: 77%
clearance [27]: 65 mL/min/kg
IC50 (Integrin alpha-4 [3]): 0.08 nM
Activity (Rattus norvegicus [28]): 64%
Tmin (Canis familiaris [29]): 1 h
Activity (Rattus norvegicus [5]): 46%
half-life [30]: 1 h
clearance [31]: 29 mL/min/kg
half-life [32]: 1.1 h
Tmin (Rattus norvegicus [33]): 2 h

O=C(Nc1ccc(C[C@H](NC(=O)[C@@H]2C[C@@H](N3CCCC3)CN2S(=O)(=O)c2cc(Cl)cc(Cl)c2)C(=O)O)cc1)c1c(Cl)cncc1Cl
IC50 (Integrin alpha-4 [1]): 0.2 nM
Activity [4]: 82%
IC50 (Integrin alpha-4 [3]): 0.1 nM

O=C(Nc1ccc(C[C@H](NC(=O)[C@@H]2C[C@@H](N3CCCCC3)CN2S(=O)(=O)c2cc(Cl)cc(Cl)c2)C(=O)O)cc1)c1c(Cl)cncc1Cl
IC50 (Integrin alpha-4 [1]): 0.3 nM
Activity [4]: 89%
IC50 (Integrin alpha-4 [3]): 0.09 nM
